Experiments:
anti-αGal antibody = assay: ELISA of reactive anti-αGal antibody in sera of xenotransplanted baboons; type: binding, baboon; details: period during which serum concentration exceeded 1 mM; data not shown
Procedure: The two xenotransplant baboons were outfitted with an indwelling catheter to the femoral vein to infuse compound and a catheter to the femoral artery for blood sampling. Following the transplant procedure, but just prior to providing circulatory access to the xenograft, the oligosaccharide was administered by i.v. pump through the catheter in a 15 min loading dose, followed by continuous 4 hour infusion to achieve 2.5 mM blood concentration (as determined by calculations presented in Table 2). […] Blood specimens collected for plasma were immediately centrifuged and the plasma withdrawn and stored frozen at -20° C. Blood specimens collected for serum were clotted at 4° C. overnight and the withdrawn serum frozen at -20° C. The αGal pentasaccharide was prepared according to the enzymatic methods set forth in example 6.2 and stored as a dry, white, solid powder. The oligosaccharide was dissolved in 250 mL sterile infusion grade saline to a concentration of 0.154 g/mL, or 177 mM. Induction anesthesia was with ketamine hydrochloride 5 mg/kg/body weight in and 0.5 mg/kg of xylazine iv. Intravenous fluid of approximately 20 ml/kg body weight was given during the course of the operative procedure through either a peripheral or central vein. Atropine 0.5 mg/kg was given iv. […] Arterial pressure was monitored in the recipient baboon by intermittent automatic cuff recordings. […]

[1] = system: mouse endothelial cell line MAE; assay: Cytotoxicity of baboon serum against MAE cells with exogenously added αGal pentasaccharide; type: cell-based
Procedure: FIG. 4 Cytotoxicity of serum from a baboon receiving αGal pentasaccharide (αGal-LNnT) intravenously. Shaded circles represent cytotoxicity of serum as recovered from baboon against mouse endothelial cell line MAE. Other lines indicate varying concentrations of exogenously added αGal-pentasaccharide into cytotoxicity assay. Added concentrations of the αGal pentasaccharide are depicted as follows: 2.0 mM, open circle; 1.0 mM, ×; 0.5 mM, diamond; and 0.25 mM, open square. […] Sera were incubated with serial dilutions of αGal oligosaccharides at 37° C. for 1 hour, then added to αGal-expressing monolayers (pig kidney cells, PK-15) in Terasaki plates for 1 hour at 37° C. Cytotoxicity was mediated by either endogenous complement, or the sera were de-complemented (heat inactivated for 30 minutes at 56° C.) and exogenous (rabbit) complement was added. After washing away excess serum, the viable dye mix "live-dead" (calcein AM/ethidium homodimer (Molecular Probes Inc., Eugene Oreg.)) was added and monolayers were scored for viability by fluorescence microscopy. Three Baboons were outfitted with indwelling venous and arterial catheters to the femoral vessels, and held in place with the aid of a jacket. Oligosaccharides were administered through the catheter in a 15 minute continuous infusion.

[2] = system: mouse endothelial cell line, MAE; type: cell-based; details: 240 min

## CC(=O)N[C@H]1[C@H](O[C@H]2[C@@H](O)[C@@H](CO)O[C@@H](O[C@H]3[C@H](O)[C@@H](O)C(O)O[C@@H]3CO)[C@@H]2O)O[C@H](CO)[C@@H](O[C@@H]2O[C@H](CO)[C@H](O)[C@H](O[C@H]3O[C@H](CO)[C@H](O)[C@H](O)[C@H]3O)[C@H]2O)[C@@H]1O (stereo partly shown) [αGal pentasaccharide, Galα1-3Galβ1-4GlcNAcβ1-3Galβ1-4Glc]
anti-αGal antibody
  Reactive anti-αGal antibody titer by ELISA (mouse laminin, α-Gal-albumin neoglycoconjugates, PK-15 cells): pronounced reduction in the anti-αGal antibody titer
[1]; baboon serum (FIG. 4), similar results with pig PK15 cells
  Inhibition of MAE cell cytotoxicity, in words: fully inhibits MAE cell cytotoxicity
[1]; baboon serum, exogenously added oligosaccharide (FIG. 4)
  Concentration of αGal pentasaccharide that inhibits serum cytotoxicity of MAE cells: greater than 1 mM
[2]
  Reduction of cytotoxicity of baboon sera against MAE cells: 100%

— patent US6096725A, “Methods of using αGal oligosaccharides as immune system targeting agents” (Neose Technologies, Inc., priority 1997, dated 2000)
